In US20230146455A1, “TREATMENT OF INFLAMMATORY DISEASES WITH PEPTIDES AND PHARMACEUTICAL COMPOSITIONS” (Yuyu Pharma, Inc., priority 2020, published 2023):
Values joined by “and” are separate entries in the source; they are usually repeats but may differ in a detail not shown here. Identical values can stand only once. Where a SMILES comes first, the peptide text is derived from it. [ ]: non-standard residue; d: D form. Hyp = O=C(O)[C@@H]1C[C@@H](O)CN1

Experiments:
[1] = PBMC cell counts (total, live, viability; trypan blue, Countess) with and without LPS and test articles (Example 9); assay type: cell-based, human; settings: human
Procedure, shortened: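 Human PBMCs were pretreated 2 h with test articles (0.001–100 uM) or 0.5% DMSO vehicle, then given LPS at 5 ug/ml or no LPS, in triplicate. After 24 hr, total and live cells and viability were counted by 1:1 trypan blue staining on an automated counter.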

IL-1 beta/IL-1F2 = assay: Example 9 Luminex, LPS hPBMCs: IL-1 beta/IL-1F2; assay type: cell-based, human
Experimental: Treatment Human PBMCs were pretreated with YY-101, YDE-011 and YDE-043 or reference compound; Xiidra® at various concentration (ranging from 1 nM to 100 uM) for 2 h before stimulation. An equal volume of 0.5% DMSO was used as a vehicle control. Then, the cells were treated with LPS at 5 ug/ml. The supernatants from treated cells were harvested at 24 h and placed in a 96 well for Luminex cytokine & chemokine profiling using a Luminex 200 multiplex assay (Luminex; R&D system, USA).
The main study arm with triplicate wells per group in a 24-well plate: • 1. Blank • 2. PBMC: 0.5% DMSO • 3. PBMC+LPS (5 ug/ml) • 4. PBMC+YY-101 100 uM • 5. PBMC+YY-101 10 uM • 6. PBMC+YY-101 1 uM • 7. PBMC+YY-101 0.1 uM • 8. PBMC+YY-101 0.01 uM • 9. PBMC+LPS (5 ug/ml)+Xiidra®100 uM • 10. PBMC+LPS (5 ug/ml)+Xiidra® 10 uM • 11. PBMC+LPS (5 ug/ml)+Xiidra® 1 uM • 12. PBMC+LPS (5 ug/ml)+Xiidra®0.1 uM • 13. PBMC+LPS (5 ug/ml)+Xiidra®0.01 uM • 14. PBMC+LPS (5 ug/ml)+Xiidra®0.001 uM • 15. PBMC+LPS (5 ug/ml)+YY-101 100 uM • 16. PBMC+LPS (5 ug/ml)+YY-101 10 uM • 17. PBMC+LPS (5 ug/ml)+YY-101 1 uM • 18. PBMC+LPS (5 ug/ml)+YY-101 0.1 uM • 19. PBMC+LPS (5 ug/ml)+YY-101 0.01 uM • 20. PBMC+LPS (5 ug/ml)+YY-101 0.001 uM • 21. PBMC+LPS (5 ug/ml)+YDE-011 100 uM • 22. PBMC+LPS (5 ug/ml)+YDE-011 10 uM • 23. PBMC+LPS (5 ug/ml)+YDE-011 1 uM • 24. PBMC+LPS (5 ug/ml)+YDE-011 0.1 uM • 25. PBMC+LPS (5 ug/ml)+YDE-011 0.01 uM • 26. PBMC+LPS (5 ug/ml)+YDE-011 0.001 uM • 27. PBMC+LPS (5 ug/ml)+YDE-043 100 uM • 28. PBMC+LPS (5 ug/ml)+YDE-043 10 uM • 29. PBMC+LPS (5 ug/ml)+YDE-043 1 uM • 30. PBMC+LPS (5 ug/ml)+YDE-043 0.1 uM • 31. PBMC+LPS (5 ug/ml)+YDE-043 0.01 uM • 32. PBMC+LPS (5 ug/ml)+YDE-043 0.001 uM
Multiplex assay was used to measure 30 cytokines and chemokines. The 1:2, 1:10 and 1:200 diluted cell supernatant and serial dilution of the standard were dispensed into a 96 well plate at 50 ul/well. Then, the pre-mixed cocktail of antibody-coated magnetic beads was dispensed at 50 ul/well and incubated at room temperature for 2 h in a horizontal orbital microplate shaker at 800±500 rpm. The beads were washed using a magnetic device to prevent loss. The biotin-antibody was dispensed in 50 ul of each well and incubated at room temperature for 1 h in a shaker at 800±500 rpm. After washing, streptavidin-PE was added at 50 ul/well and incubated at room temperature for 30 min in a shaker under the same conditions. Finally, after washing, wash buffer (100 ul/well) was added to the plate and incubated in a shaker for 2 min. The Luminex™ 200 setting were set according to the manufacturer's protocol. The data was calculated with a standard five-parameter logistic nonlinear regression analysis of the data (xPonent software 4.2, USA). The levels of cytokine/chemokine are normalized to the live cell counts (1×10^5 cells/mL) and presented as concentrations per mL (pg/mL or ng/mL).

[2] = PBMC + LPS(5 ug/ml) + test article 0.001 uM, Mean
[3] = PBMC + LPS(5 ug/ml) + test article 0.001 uM, single replicates
[4] = PBMC + LPS(5 ug/ml) + test article 0.01 uM, Mean
[5] = PBMC + LPS(5 ug/ml) + test article 0.01 uM, single replicates
[6] = PBMC + LPS(5 ug/ml) + test article 0.1 uM, Mean
[7] = PBMC + LPS(5 ug/ml) + test article 0.1 uM, single replicates
[8] = PBMC + LPS(5 ug/ml) + test article 1 uM, Mean
[9] = PBMC + LPS(5 ug/ml) + test article 1 uM, single replicates
[10] = PBMC + LPS(5 ug/ml) + test article 10 uM, Mean
[11] = PBMC + LPS(5 ug/ml) + test article 10 uM, single replicates
[12] = PBMC + LPS(5 ug/ml) + test article 100 uM, Mean
[13] = PBMC + LPS(5 ug/ml) + test article 100 uM, single replicates

CC(C)C[C@H](NC(=O)CNC(=O)[C@H](CC(C)C)NC(=O)[C@H](CCC(N)=O)NC(=O)CNC(=O)[C@@H]1C[C@@H](O)CN1)C(=O)N[C@@H](C)C(=O)NCC(=O)N1CCC[C@H]1C(=O)N[C@@H](CCCCN)C(=O)O [YDE-011] (H-[Hyp]GQLGLAGPK-OH)
viability at 24 h, 0.001 µM ([1]; PBMCs, PBMC + LPS(5 ug/ml) + compound 0.001 uM, 24 hr): 85 ± 5.1% | viability at 24 h, 0.01 µM ([1]; PBMCs, PBMC + LPS(5 ug/ml) + compound 0.01 uM, 24 hr): 81 ± 1.2% | viability at 24 h, 0.1 µM ([1]; PBMCs, PBMC + LPS(5 ug/ml) + compound 0.1 uM, 24 hr): 82 ± 4% | viability at 24 h, 1 µM ([1]; PBMCs, PBMC + LPS(5 ug/ml) + compound 1 uM, 24 hr): 79.7 ± 5.8% | viability at 24 h, 10 µM ([1]; PBMCs, PBMC + LPS(5 ug/ml) + compound 10 uM, 24 hr): 88.3 ± 1.5% | viability at 24 h, 100 µM ([1]; PBMCs, PBMC + LPS(5 ug/ml) + compound 100 uM, 24 hr): 74.3 ± 4.1% | viability at 24 h, 0.01 µM ([1]; human PBMCs, PBMC + LPS(5 ug/ml), test article 0.01 uM, single replicates): 83% | Concentration (IL-1 beta/IL-1F2; [2]): 6481.9 pg/mL | MFI (IL-1 beta/IL-1F2; [2]): 1671.0 | conc/live cell (IL-1 beta/IL-1F2; [2]): 1225.5 pg/10^5 | Concentration (IL-1 beta/IL-1F2; [3]): 6498.5 pg/mL and 6544.6 pg/mL and 6402.7 pg/mL | MFI (IL-1 beta/IL-1F2; [3]): 1675.5 and 1688.0 and 1649.5 | conc/live cell (IL-1 beta/IL-1F2; [3]): 1444.1 pg/10^5 and 1128.4 pg/10^5 and 1103.9 pg/10^5 | Concentration (IL-1 beta/IL-1F2; [4]): 6567.3 pg/mL | MFI (IL-1 beta/IL-1F2; [4]): 1694.2 | conc/live cell (IL-1 beta/IL-1F2; [4]): 1128.7 pg/10^5 | Concentration (IL-1 beta/IL-1F2; [5]): 6557.5 pg/mL and 6476.4 pg/mL and 6668.1 pg/mL | MFI (IL-1 beta/IL-1F2; [5]): 1691.5 and 1669.5 and 1721.5 | conc/live cell (IL-1 beta/IL-1F2; [5]): 1057.7 pg/10^5 and 1269.9 pg/10^5 and 1058.4 pg/10^5 | Concentration (IL-1 beta/IL-1F2; [6]): 6345.6 pg/mL | MFI (IL-1 beta/IL-1F2; [6]): 1634.0 | conc/live cell (IL-1 beta/IL-1F2; [6]): 1115.2 pg/10^5 | Concentration (IL-1 beta/IL-1F2; [7]): 6305.1 pg/mL and 6376.9 pg/mL and 6354.8 pg/mL | MFI (IL-1 beta/IL-1F2; [7]): 1623.0 and 1642.5 and 1636.5 | conc/live cell (IL-1 beta/IL-1F2; [7]): 955.3 pg/10^5 and 1275.4 pg/10^5 and 1114.9 pg/10^5 | Concentration (IL-1 beta/IL-1F2; [8]): 6587.0 pg/mL | MFI (IL-1 beta/IL-1F2; [8]): 1699.5 | conc/live cell (IL-1 beta/IL-1F2; [8]): 1314.4 pg/10^5 | Concentration (IL-1 beta/IL-1F2; [9]): 6553.8 pg/mL and 6454.2 pg/mL and 6753.1 pg/mL | MFI (IL-1 beta/IL-1F2; [9]): 1690.5 and 1663.5 and 1744.5 | conc/live cell (IL-1 beta/IL-1F2; [9]): 1191.6 pg/10^5 and 1344.6 pg/10^5 and 1406.9 pg/10^5 | Concentration (IL-1 beta/IL-1F2; [10]): 6933.0 pg/mL | MFI (IL-1 beta/IL-1F2; [10]): 1793.2 | conc/live cell (IL-1 beta/IL-1F2; [10]): 1319.4 pg/10^5 | Concentration (IL-1 beta/IL-1F2; [11]): 7010.0 pg/mL and 6782.6 pg/mL and 7006.3 pg/mL | MFI (IL-1 beta/IL-1F2; [11]): 1814.0 and 1752.5 and 1813.0 | conc/live cell (IL-1 beta/IL-1F2; [11]): 1298.1 pg/10^5 and 1169.4 pg/10^5 and 1490.7 pg/10^5 | Concentration (IL-1 beta/IL-1F2; [12]): 8675.0 pg/mL | MFI (IL-1 beta/IL-1F2; [12]): 2260.0 | conc/live cell (IL-1 beta/IL-1F2; [12]): 1430.0 pg/10^5 | Concentration (IL-1 beta/IL-1F2; [13]): 8497.8 pg/mL and 8918.4 pg/mL and 8608.8 pg/mL | MFI (IL-1 beta/IL-1F2; [13]): 2213.0 and 2324.5 and 2242.5 | conc/live cell (IL-1 beta/IL-1F2; [13]): 1393.1 pg/10^5 and 1462.0 pg/10^5 and 1434.8 pg/10^5
